We go through one molecule from paper PMC6367500, “18β-glycyrrhetyl-3-O-sulfate would be a causative agent of licorice-induced pseudoaldosteronism” (Scientific Reports, 2019).

This series is described as follows: Biliary excretion of GA metabolites in SD rats injected i.v. with GA. It is filed as in vivo. As to conditions: GA 0.2 mg/kg i.v. As to the method: Figure 3 Pharmacokinetic profiles of GL metabolites in SD rats (A,C,E,F) and EHBRs (B,D) after the administration of GA. GA (200 mg/kg) was administered orally to anesthetized SD rats or EHBRs, and plasma and urine were collected for 12 h (A–D). GA (0.2 mg/kg) was intravenously injected into anesthetized SD rats in which the biliary tract was cannulated. Then, bile samples were collected for 4 h (E). GA (0.2 mg/kg) was intravenously injected into conscious SD rats, and the feces was collected for 24 h. […] Since the determined lavels of 3MGA for B and D, 3 for C, GA for D, and all compounds except for 3 for E were relatively low; their magnified versions of their graphs are shown at the top or as an inside of each graph. The concentrations of GA metabolites were measured by LC-MS/MS, and data are plotted as mean ± S.E. (n = 4 for A–D,F; n = 3 for E).
GA, 3MGA, and compounds 1–3 were gradually excreted into the bile in SD rats injected i.v. with GA (0.2 mg/kg) and the accumulation of 3 in the bile at 4 h was 12-, 1.5 × 10^3-, 32-, and 15-fold those of GA, 3MGA, 1, and 2, respectively (Fig. 3E). […] GA, 3, and 2 were found in the feces of SD rats collected for 24 h after the i.v. injection of GA (0.2 mg/kg), while 3MGA and 1 were not found in the feces (Fig. 3F).
Female SD rats or EHBRs (9-week-old) were anesthetized by an intraperitoneal (i.p.) injection of urethane (1 g/kg) and their jugular veins were exposed. GA suspended in 0.5% CMC was then administered orally (200 mg/kg) to the unconscious rats, and blood samples were collected from the jugular vein; urine samples were collected using a metabolic cage at an appropriate time over a 12-h period. […] Feces were homogenized in phosphate-buffered saline (PBS; 0.15 M, pH 7.2), centrifuged (1.2 × 10^4 g, 10 min), and the supernatants were collected. After 1 week as a washout period, female SD rats were anesthetized by an i.p. injection of urethane (1 g/kg) and their biliary tract was cannulated. GA (0.2 mg/kg) was injected into the jugular vein, and the bile was collected every hour for 4 h. Aliquots (10 µl) of plasma, urine, homogenate of feces, or bile were mixed with 20 µl of subtilisin (0.91 U/ml) and incubated at 37 °C for 30 min, followed by the addition of 70 µl of astragaloside IV solution (1 µg/ml in ethanol containing 0.5% formic acid, used as internal standard), and kept at −20 °C for 30 min. […] The transitions (precursor to daughter) monitored and retention times were as follows: ESI(+) 743.4 to 567.5 m/z for compound 1 (5.5 min), ESI(−) 565.5 to 96.5 m/z for 2 (6.2 min), ESI(−) 549.5 to 96.5 m/z for 3 (8.1 min), ESI(+) 647.6 to 453.6 m/z for 3MGA (9.2 min), ESI(+) 471.3 to 91.0 m/z for GA (8.8 min), ESI(+) 823.5 to 453.6 m/z for GL (10.8 min), and ESI(+) 785.4 to 143.0 m/z for astragaloside IV (3.0 min). Linear regressions over the concentration range of 32 nM to 20 µM for each compound were examined using the peak-area ratio of the compounds to their internal standards and the least-squares method (r^2 > 0.98).

Consider `CC1(C)[C@@H](OS(=O)(=O)O)CC[C@]2(C)[C@H]3C(=O)C=C4[C@@H]5C[C@@](C)(C(=O)O)CC[C@]5(C)CC[C@@]4(C)[C@]3(C)CC[C@@H]12` [compound 3, 18β-glycyrrhetyl-3-O-sulfate], for which the “rank among GA metabolites eliminated into bile” value was “major metabolite of GA eliminated into the bile”. Besides, where the note is “biliary tract cannulated”, the “accumulation in bile at 4 h relative to that of 1” value was found to be 32 fold, the “accumulation in bile at 4 h relative to that of 2” value was determined as 15 fold, the “accumulation in bile at 4 h relative to that of 3MGA” value is recorded as 1.5 × 10^3 fold and the “accumulation in bile at 4 h relative to that of GA” value is given as 12 fold.
